{"source": "patent US20040214799A1", "about": "“Cancerous metastasis inhibitors containing carbacyclic phosphatidic acid derivatives” (priority 2001, published 2004)", "key": {"MM1 cells [1]": {"test_system": "MM1 cells", "assay": "Measurement of intracellular cAMP in MM1 cells", "format": "cell-based, rat", "settings": "25 μM cPA or 10 μM Forskolin, pretreated with 1 mM IBMX", "description": "After a certain time period, 10% ice-cooled TCA was added to stop the reaction. The centrifuged supernatant was washed 4 times with water-saturated diethylether to remove TCA, and then placed under nitrogen gas flow at 60° C. to remove the solvent completely. cAMP in the resultant sample was measured using a cyclic AMP [^3H] assay system (Amersham)."}, "[2]": {"test_system": "Mouse malignant melanoma B16-F0", "assay": "B16 melanoma hematogenous lung metastasis model; for Metastatic nodules, Abdominal cavity Adipose tissue: key: −: Absent; +: Present; for Metastatic nodules, Abdominal cavity Adrenal gland: key: −: Absent; +: Present; for Metastatic nodules, Abdominal cavity Diaphragm: key: −: Absent; +: Present; for Metastatic nodules, Abdominal cavity Kidney: key: −: Absent; +: Present; for Metastatic nodules, Abdominal cavity Ovary: key: −: Absent; +: Present; for Metastatic nodules, Abdominal cavity Spleen: key: −: Absent; +: Present; for Metastatic nodules, Thoracic cavity: key: −: Absent; +: Present; for Metastatic nodules, Tissue around glandual clitoris: key: −: Absent; +: Present", "format": "in vivo", "settings": "0.008 mg/body i.v.", "description": "cPA-19 and cPA-20 were used as test substances. 0.1 w/v % BSA/PBS which was prepared by dissolving Albumin, Bovine [essentially Fatty Acid Free] (BSA, Lot No. 89H7604, Sigma chemical company) in Ca^2+ and Mg^2+ free PBS (pH 7.2), was used as a medium After preparation, the solution was sterilized by filtration using a filter (0.22 μm, Millipore). Preparation was performed when used. cPA-5 was used as a positive control substance.\nA medium was added in a volume required for a test substance or a positive control substance. Dissolution was performed by ultrasonication, thereby preparing a 0.16 mg/mL solution. The 0.16 mg/mL solution containing a test substance was diluted with a medium, thereby preparing 0.08 and 0.02 mg/mL solutions. All mixtures were prepared when used.\nMice were purchased from CHARLES RIVER JAPAN. INC. The line employed herein was C57BL/6NCrj (sexuality: female). The number of animals kept in stock was 60, and the age of these animals when kept in stock was 4 weeks. […] The environmental conditions for the test system were as follows:\nMouse malignant melanoma B16-F0 was used as a tumor cell. The cell was purchased from Dainippon Pharmaceutical Co., Ltd.\nDulbecco's Modified Eagle's Media containing 10% feral bovine serum and kanamycin were used for culture. […] A medium was added to stop the action of trypsin while pipetting, thereby preparing a cell suspension. The suspension was diluted by one-tenth with a medium for culturing, followed by subculturing until it reached a volume sufficient for grafting.\nA cell suspension was prepared by the same technique as the subculture method. Specifically, the cells were washed with a Ca^2+ and Mg^2+ free phosphate buffer [PBS(−)], and then harvested. The harvested cells were suspended in a 10 mL of PBS(−), thereby preparing a cell suspension. The number of cells in the cell suspension was measured to obtain the total cell number. 50 μL of the cell suspension, 100 μL of 0.4% trypan blue liquid and 100 μL of PBS(−) were mixed, and then viable count was measured. The survival rate of the cells was calculated from the viable count and total cell number.\nBased on the body weight on the day of the administration of the test substance, mice were grouped into 8 test groups according to the stratified continuous randomization method as shown in Table 2 below.\nThe mixture was administered via the caudal vein. The number of grafted cells was 5×10^5 cells/body. The dose of the test substance was 0.001, 0.004 or 0.008 mg/body, and the dose of the positive control substance was 0.008 mg/body.\nOn day 14 after the administration of the test substance, blood was collected from the posterior portion of the abdominal vena cava under isoflurane anesthesia. After the mice were sacrificed by blood-letting, the presence or absence of intrapleural and intraperitoneal metastatic nodules was confirmed. Lungs were extracted, and then fixed with a 10% neutral buffered formalin solution. The number of nodules resulting from lung metastasis was measured under a stereoscopic microscope (magnification: 10 times).\nAfter the measurement of the number of nodules resulting from lung metastasis, samples were paraffin-embedded, and then thin sections were prepared. Hematoxylin eosinic-stained samples were prepared from these sections. The number of metastatic lesions in the certain portions of the left lobe and the posterior lobe was measured, and then the lesions were sorted by size. On the basis of the diameter (0.65 mm) of an object lens (×40), metastatic lesions with major diameters of less than 0.65 mm were classified as having a small size, and those with major diameters of between 0.65 mm or more and less than 1.30 mm were classified as having a large size. Furthermore, the degree of invasion of lymphocytes into metastatic lesions was confirmed qualitatively.\nThe representative value of each test group was denoted as mean±standard deviation (mean±S.D.). Differences in mean values were examined as follows."}, "MM1 cells [3]": {"test_system": "MM1 cells", "settings": "Int. J. Cancer 81, 918-922 (1999), cited from earlier work"}, "MM1 cells [4]": {"test_system": "MM1 cells", "settings": "reported by Mukai et al., Int. J. Cancer 81, 918-922 (1999); cited from earlier work"}, "HT-1080 cells": {"test_system": "HT-1080 cells", "settings": "Mukai et al., Int. J. Cancer 81, 918-922 (1999); cited from earlier work"}, "MM1 cells [5]": {"test_system": "MM1 cells", "settings": "reported by Mukai et al., Int. J. Cancer 81, 918-922 (1999); cited from earlier work", "remark": "listed apart in the source"}, "[6]": {"settings": "autopsy day 14, individual animals"}}, "note": "Values joined by “and” are separate entries in the source; they are usually repeats but may differ in a detail not shown here. Identical values can stand only once."}
{"smiles": "CCCCCCCCCCCCCCCC(=O)OC[C@@H]1COP(=O)(O)O1", "note": "[cPA-5, Pal-cPA, reference compound]", "values": [{"measurement": "change of intracellular cAMP concentration (in words)", "setting": "MM1 cells [1]", "result": "could not be confirmed"}, {"measurement": "action of decreasing the number of metastatic lesions (in words)", "setting": "[2]", "result": "no action of decreasing the number of metastatic lesions was observed"}, {"measurement": "metastasis / number of metastatic nodules in the lungs versus medium group (in words)", "setting": "[2]", "result": "a significant decrease was observed in the number of metastatic nodules"}, {"measurement": "invasion of lymphocytes into metastatic lesions observed in cases", "setting": "[2]; animals with metastatic lesions", "result": "2 out of 5"}, {"measurement": "Metastatic nodules, Abdominal cavity Adipose tissue", "setting": "[2]; [6]", "result": "−"}, {"measurement": "Metastatic nodules, Abdominal cavity Adrenal gland", "setting": "[2]; [6]", "result": "−"}, {"measurement": "Metastatic nodules, Abdominal cavity Diaphragm", "setting": "[2]; [6]", "result": "−"}, {"measurement": "Metastatic nodules, Abdominal cavity Kidney", "setting": "[2]; [6]", "result": "−"}, {"measurement": "Metastatic nodules, Abdominal cavity Ovary", "setting": "[2]; [6]", "result": "−"}, {"measurement": "Metastatic nodules, Abdominal cavity Spleen", "setting": "[2]; [6]", "result": "+ (3×) and − (3×)"}, {"measurement": "Metastatic nodules, Thoracic cavity", "setting": "[2]; [6]", "result": "−"}, {"measurement": "Metastatic nodules, Tissue around glandual clitoris", "setting": "[2]; [6]", "result": "−"}, {"measurement": "cases with metastatic nodules in the spleen", "setting": "[2]; autopsy, 6 mice", "result": 3, "unit": "case"}, {"measurement": "metastatic nodules in the thoracic cavity", "setting": "[2]; autopsy, 6 mice", "result": "no metastatic nodules were observed"}, {"measurement": "Number of lung tumor nodules, Range (mininum-maximum)", "setting": "[2]; day 14, N 6", "result": "5-38"}, {"measurement": "Number of mice having lung tumor nodules", "setting": "[2]; day 14, N 6", "result": 6}, {"measurement": "Number of lung tumor nodules", "setting": "[2]; day 14, mean ± S.D., N 6", "result": "21 ± 13$"}, {"measurement": "Number of mice having metastatic lesions", "setting": "[2]; lung histopathology, N 6", "result": 5}, {"measurement": "Findings: Invasion of lymphocytes into melanoma metastatic lesion", "setting": "[2]; lung histopathology, individual animals", "result": "− (3×) and ++ and +"}, {"measurement": "Number of metastatic lesions per section, Large size", "setting": "[2]; major diameter 0.65 mm ≦ and <1.3 mm, mean ± S.D.", "result": "0.8 ± 0.8"}, {"measurement": "Number of metastatic lesions per section, Small size", "setting": "[2]; major diameter <0.65 mm, left lobe and posterior lobe, mean ± S.D.", "result": "1.2 ± 0.8"}, {"measurement": "Number of metastatic lesions per section, Total", "setting": "[2]; mean ± S.D.", "result": "2.0 ± 1.3"}, {"measurement": "invasion suppressing action on LPA-induced invasion (in words)", "setting": "MM1 cells [3]; reported by Mukai et al.", "result": "strongly suppress"}, {"measurement": "suppressed LPA-induced invasion by", "setting": "MM1 cells [3]; studied by Mukai et al.", "result": "approximately 85%"}, {"measurement": "suppression of FBS-induced invasion (in words)", "setting": "MM1 cells [4]", "result": "strongly suppress"}, {"measurement": "suppression of serum/LPA-independent invasion of HT-1080 cells (in words)", "setting": "HT-1080 cells", "result": "suppressed"}, {"measurement": "intracellular cAMP concentration of MM1 cells (in words)", "setting": "MM1 cells [5]", "result": "leads an increase of intracellular cAMP concentration"}]}
